The text below walks through data of patent publication US12054486B2, “Pyridine derivatives and their use as sodium channel activators” (Xenon Pharmaceuticals Inc., priority 2021, dated 2024).

In general, EC50 refers to the concentration that produces a half-maximal response. Low readings indicate a more potent agent, high ones a less potent agent.

The assay concerns the target sodium channel isoforms of interest stably expressed in Human Embryonic Kidney Cells (voltage-gated sodium channel, particularly NaV1.1) (Homo sapiens, UniProt P35498). The assay can be described thus: automated planar patch clamp assay of sodium channel gating (area under the sodium current trace). Type of assay: cell-based. The conditions noted are these: HEK cells, voltage step from −120 mV to 0 mV, increasing concentrations. Summed up:
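Sodium channel isoforms stably expressed in HEK cells, recorded by automated planar patch clamp with depolarizing steps from −120 mV to 0 mV at increasing compound concentrations. Area under the current trace quantifies gating effect; peak current, inactivation time constant and steady-state inactivation also measured; potency from concentration responses.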
On the technique in general: Patch clamp records ionic current or voltage across a cell membrane.
For `FC1(F)CCN(c2nccc(-c3ccccc3)c2-c2nc3c([nH]2)CCCC3)C1` [Example 60, 2-(2-(3,3-difluoropyrrolidin-1-yl)-4-phenylpyridin-3-yl)-4,5,6,7-tetrahydro-1H-benzo[d]imidazole], the EC50 was under 1 µM and the “Empirical Emax” value was “++ (++ indicates a value from 2.0 up to 5.0 μM)”.
For `c1ccc(-c2ccnc(N3CCCC3)c2-c2nc3ccccc3[nH]2)nc1` [Example 10, 2-(2′-(pyrrolidin-1-yl)-[2,4′-bipyridin]-3′-yl)-1H-benzo[d]imidazole] the same measures were 10 to 50 µM and “++ (++ indicates a value from 2.0 up to 5.0 μM)”.
For the molecule `Cc1ccccc1-c1ccnc(N2CCCC2)c1-c1nc2ccccc2[nH]1` [Example 7, 2-(2-(pyrrolidin-1-yl)-4-(o-tolyl)pyridin-3-yl)-1H-benzo[d]imidazole], the EC50 fell in the range of 1 to 10 µM and the “Empirical Emax” value was “++ (++ indicates a value from 2.0 up to 5.0 μM)”.
With `c1ccc(-c2ccnc(N3CCOCC3)c2C2=N[C@@H]3CCCC[C@H]3N2)cc1` [Example 25, 4-(3-((3aR,7aR)-3a,4,5,6,7,7a-hexahydro-1H-benzo[d]imidazol-2-yl)-4-phenylpyridin-2-yl)morpholine], the EC50 lay within 1 to 10 µM and the “Empirical Emax” value was “+ (+ indicates a value less than 2.0 μM)”.
In the same order, the values of `c1ccc(-c2ccnc(N3CCCC3)c2-c2nc3c([nH]2)COCC3)cc1` [Example 44, 2-(4-phenyl-2-(pyrrolidin-1-yl)pyridin-3-yl)-3,4,6,7-tetrahydropyrano[3,4-d]imidazole] are 1 to 10 µM and “+++ (+++ indicates a value from 5.0 up to 7.5 μM)”.
In the same order, the values of `Fc1ccc(F)c(-c2ccnc(N3CC[C@H](F)C3)c2-c2nc3c([nH]2)COCC3)c1` [Example 56, (S)-2-(4-(2,5-difluorophenyl)-2-(3-fluoropyrrolidin-1-yl)pyridin-3-yl)-3,4,6,7-tetrahydropyrano[3,4-d]imidazole] are 1 to 10 µM and “++++ (++++ indicates a value greater than 7.5)”.
In the same order, the values of `CC(C)c1ccc(-c2cc(-c3c(-c4ccccc4)ccnc3N3CC[C@H](F)C3)n[nH]2)cc1` [Example 20, (S)-2-(3-fluoropyrrolidin-1-yl)-3-(5-(4-isopropylphenyl)-1H-pyrazol-3-yl)-4-phenylpyridine] are 10 to 50 µM and “++ (++ indicates a value from 2.0 up to 5.0 μM)”.
For the molecule `COC1CCc2nc(-c3c(-c4ccccc4)ccnc3N3CC[C@H](F)C3)[nH]c2C1` (stereo partly drawn) [Example 58, 2-(2-((S)-3-fluoropyrrolidin-1-yl)-4-phenylpyridin-3-yl)-6-methoxy-4,5,6,7-tetrahydro-1H-benzo[d]imidazole], the EC50 lay within 1 to 10 µM and the “Empirical Emax” value is on record as “++ (++ indicates a value from 2.0 up to 5.0 μM)”.
Take `c1ccc(-c2ccnc(N3CCOCC3)c2-c2nc3c([nH]2)COCC3)cc1` [Example 64, 2-(2-morpholino-4-phenylpyridin-3-yl)-3,4,6,7-tetrahydropyrano[3,4-d]imidazole]: the EC50 was 10 to 50 µM and the “Empirical Emax” value is on record as “+ (+ indicates a value less than 2.0 μM)”.
For `CC(C)(C)OC(=O)N1CCc2nc(-c3c(-c4ccccc4)ccnc3N3CC[C@H](F)C3)[nH]c2C1` [Example 34, Tert-Butyl (S)-2-(2-(3-fluoropyrrolidin-1-yl)-4-phenylpyridin-3-yl)-3,4,6,7-tetrahydro-5H-imidazo[4,5-c]pyridine-5-carboxylate] the same measures were 1 to 10 µM and “+++ (+++ indicates a value from 5.0 up to 7.5 μM)”.
For `CC(C)(C)c1ccc2nc(-c3c(-c4ccccc4)ncnc3N3CCCC3)[nH]c2c1` [Example 31, 6-(tert-butyl)-2-(4-phenyl-6-(pyrrolidin-1-yl)pyrimidin-5-yl)-1H-benzo[d]imidazole] the same measures were 1 to 10 µM and “+++ (+++ indicates a value from 5.0 up to 7.5 μM)”.
For `CC(C)CC1CN=C(c2c(-c3ccccc3F)ccnc2N2CCCC2)N1` (stereo not shown) [Example 5, 4-(2-fluorophenyl)-3-(5-isobutyl-4,5-dihydro-1H-imidazol-2-yl)-2-(pyrrolidin-1-yl)pyridine] the same measures were 1 to 10 µM and “+ (+ indicates a value less than 2.0 μM)”.
For `Fc1cccc(-c2ccnc(N3CCC(F)(F)C3)c2-c2nc3c([nH]2)CCOC3)c1F` [Example 77, 2-[4-(2,3-difluorophenyl)-2-(3,3-difluoropyrrolidin-1-yl)-3-pyridyl]-1,4,6,7-tetrahydropyrano[3,4-d]imidazole], the EC50 is under 1 µM and the “Empirical Emax” value is “++++ (++++ indicates a value greater than 7.5)”.
The molecule `CC(=O)N1CCc2nc(-c3c(-c4ccccc4)ccnc3N3CC[C@H](F)C3)[nH]c2C1` [Example 37, (S)-1-(2-(2-(3-fluoropyrrolidin-1-yl)-4-phenylpyridin-3-yl)-3,4,6,7-tetrahydro-5H-imidazo[4,5-c]pyridin-5-yl)ethan-1-one] showed a concentration giving a half-maximal response (EC50) of 10 to 50 µM.
Take `F[C@H]1CCN(c2nccc(-c3ccccc3)c2-c2nc3c([nH]2)CCCC3)C1` [Example 29, (S)-2-(2-(3-fluoropyrrolidin-1-yl)-4-phenylpyridin-3-yl)-4,5,6,7-tetrahydro-1H-benzo[d]imidazole]: the EC50 was under 1 µM and the “Empirical Emax” value was “++ (++ indicates a value from 2.0 up to 5.0 μM)”.
In the same order, the values of `c1ccc(-c2ccnc(OC3CCC3)c2-c2nc3c([nH]2)COCC3)cc1` [Example 67, 2-(2-cyclobutoxy-4-phenylpyridin-3-yl)-3,4,6,7-tetrahydropyrano[3,4-d]imidazole] are at least 50 µM and “+ (+ indicates a value less than 2.0 μM)”.
In the same order, the values of `F[C@H]1CCN(c2nccc(-c3ccccc3)c2-c2nc(-c3ccccc3)n[nH]2)C1` [Example 69, (S)-2-(3-fluoropyrrolidin-1-yl)-4-phenyl-3-(3-phenyl-1H-1,2,4-triazol-5-yl)pyridine] are 1 to 10 µM and “++ (++ indicates a value from 2.0 up to 5.0 μM)”.
For `N#CC1CCN(c2nccc(-c3ccccc3)c2-c2nc3c([nH]2)COCC3)C1` (stereo not shown) [Example 46] the same measures were 1 to 10 µM and “+++ (+++ indicates a value from 5.0 up to 7.5 μM)”.
As to `c1ccc(-c2ccnc(N3CCCC3)c2-c2nc3ccccc3[nH]2)cc1` [Example 16, 2-(4-phenyl-2-(pyrrolidin-1-yl)pyridin-3-yl)-1H-benzo[d]imidazole], the EC50 is 1 to 10 µM and the “Empirical Emax” value is given as “+++ (+++ indicates a value from 5.0 up to 7.5 μM)”.
In the same order, the values of `CCCCNc1nnc(-c2c(-c3ccccc3F)ccnc2N2CC[C@H](F)C2)o1` [Example 12, (S)—N-butyl-5-(4-(2-fluorophenyl)-2-(3-fluoropyrrolidin-1-yl)pyridin-3-yl)-1,3,4-oxadiazol-2-amine] are 10 to 50 µM and “++ (++ indicates a value from 2.0 up to 5.0 μM)”.
In the same order, the values of `CC(C)(C)OC(=O)N1CCc2nc(-c3c(-c4ccccc4)ccnc3N3CCC(F)(F)C3)[nH]c2C1` [Example 55, Tert-Butyl 2-[2-(3,3-difluoropyrrolidin-1-yl)-4-phenyl-3-pyridyl]-3,4,6,7-tetrahydroimidazo[4,5-c]pyridine-5-carboxylate] are under 1 µM and “+++ (+++ indicates a value from 5.0 up to 7.5 μM)”.
For `OC1Cc2nc(-c3c(-c4ccccc4)ccnc3N3CCC(F)(F)C3)[nH]c2C1` [Example 63, 2-(2-(3,3-difluoropyrrolidin-1-yl)-4-phenylpyridin-3-yl)-1,4,5,6-tetrahydrocyclopenta[d]imidazol-5-ol] the same measures were 1 to 10 µM and “++ (++ indicates a value from 2.0 up to 5.0 μM)”.
Consider `F[C@H]1CCN(c2nccc(C3=CCCC3)c2-c2nc3ccccc3[nH]2)C1` [Example 14, (S)-2-(4-(cyclopent-1-en-1-yl)-2-(3-fluoropyrrolidin-1-yl)pyridin-3-yl)-1H-benzo[d]imidazole], for which the EC50 was in the range of 1 to 10 µM and the “Empirical Emax” value is recorded as “++ (++ indicates a value from 2.0 up to 5.0 μM)”.
For the molecule `F[C@H]1CCN(c2nccc(-c3ccccc3)c2C2=N[C@@H]3CCCC[C@H]3N2)C1` [Example 24, (3aR,7aR)-2-(2-((S)-3-fluoropyrrolidin-1-yl)-4-phenylpyridin-3-yl)-3a,4,5,6,7,7a-hexahydro-1H-benzo[d]imidazole], the 50% effective concentration (EC50) is 1 to 10 µM and the “Empirical Emax” value is given as “+ (+ indicates a value less than 2.0 μM)”.
For `Clc1ccccc1-c1ccnc(N2CCCC2)c1-c1nc2ccccc2[nH]1` [Example 6, 2-(4-(2-chlorophenyl)-2-(pyrrolidin-1-yl)pyridin-3-yl)-1H-benzo[d]imidazole] the same measures were 1 to 10 µM and “++ (++ indicates a value from 2.0 up to 5.0 μM)”.
In the same order, the values of `F[C@H]1CCN(c2nccc(-c3ccccc3)c2-c2nnn[nH]2)C1` [Example 32, (S)-2-(3-fluoropyrrolidin-1-yl)-4-phenyl-3-(1H-tetrazol-5-yl)pyridine] are under 1 µM and “+ (+ indicates a value less than 2.0 μM)”.
Take `F[C@H]1CCN(c2nccc(-c3ccccc3)c2-c2nc3c([nH]2)CN(C2COC2)CC3)C1` [Example 39, (S)-2-(2-(3-fluoropyrrolidin-1-yl)-4-phenylpyridin-3-yl)-5-(oxetan-3-yl)-4,5,6,7-tetrahydro-3H-imidazo[4,5-c]pyridine]: the EC50 was 10 to 50 µM and the “Empirical Emax” value is given as “++ (++ indicates a value from 2.0 up to 5.0 μM)”.
In the same order, the values of `CC(C)(C)c1nc(-c2c(-c3ccccc3)ccnc2N2CCC(F)(F)C2)no1` [Example 62, 5-(tert-butyl)-3-(2-(3,3-difluoropyrrolidin-1-yl)-4-phenylpyridin-3-yl)-1,2,4-oxadiazole] are 1 to 10 µM and “+ (+ indicates a value less than 2.0 μM)”.
